Four compounds from article doi:10.1101/2020.11.18.387670v2 (biorxiv, 2020) can be followed below.

In one assay the target is GAPDH (Homo sapiens, UniProt P04406). The experiment in a line: NADH absorbance at […] nm. It is filed as biochemical. The conditions noted are these: activator, allosteric suggested; 1 mM NAD+, 2.88 mM G3P, 20 mM arsenate, pH 8.5.
In assay [1] the target is T1, α-enolase (ENO1) (Homo sapiens, UniProt P06733). The experiment in a line: SPR. The assay is classed as binding.
Assay [2] concerns the target T1, α-enolase (ENO1). The assay is described as follows: PKM1-coupled luminescent Kinase-Glo assay. It is filed as biochemical.
Assay [3] concerns the target T2, α-enolase (ENO1) (Homo sapiens, UniProt P06733, K330E). The experiment in a line: SPR. The assay is classed as binding.
The target in assay [4] is T2, α-enolase (ENO1). The experiment in a line: PKM1-coupled luminescent Kinase-Glo assay. The assay is classed as biochemical. Background: Kinase-Glo measures the ATP left after a reaction by luminescence.
The target of another assay is PKM2 (Homo sapiens, UniProt P14618). The experiment in a line: SPR. It is filed as binding.
Another assay addresses TRIM28 (Homo sapiens, UniProt Q13263). The assay is described as follows: SPR. The assay is classed as binding.

The structures appear in SMILES notation.

T1 sequence (P06733 whole entry): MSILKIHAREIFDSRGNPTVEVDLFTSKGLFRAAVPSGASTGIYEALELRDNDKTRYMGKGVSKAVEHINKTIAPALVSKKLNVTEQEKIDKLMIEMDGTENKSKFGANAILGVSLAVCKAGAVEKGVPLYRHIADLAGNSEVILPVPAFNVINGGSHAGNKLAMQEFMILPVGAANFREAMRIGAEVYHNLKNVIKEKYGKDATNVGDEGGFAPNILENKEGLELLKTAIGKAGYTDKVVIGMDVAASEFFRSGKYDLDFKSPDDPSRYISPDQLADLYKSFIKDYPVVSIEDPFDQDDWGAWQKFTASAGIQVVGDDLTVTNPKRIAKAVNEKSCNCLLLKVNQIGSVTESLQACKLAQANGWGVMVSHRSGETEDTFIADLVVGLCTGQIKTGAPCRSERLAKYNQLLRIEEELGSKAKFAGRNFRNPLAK
T2 sequence (P06733 whole entry K330E): as the sequence (P06733 whole entry) above, with K330E counted along it
Sequence of TRIM28 (Q13263 whole entry): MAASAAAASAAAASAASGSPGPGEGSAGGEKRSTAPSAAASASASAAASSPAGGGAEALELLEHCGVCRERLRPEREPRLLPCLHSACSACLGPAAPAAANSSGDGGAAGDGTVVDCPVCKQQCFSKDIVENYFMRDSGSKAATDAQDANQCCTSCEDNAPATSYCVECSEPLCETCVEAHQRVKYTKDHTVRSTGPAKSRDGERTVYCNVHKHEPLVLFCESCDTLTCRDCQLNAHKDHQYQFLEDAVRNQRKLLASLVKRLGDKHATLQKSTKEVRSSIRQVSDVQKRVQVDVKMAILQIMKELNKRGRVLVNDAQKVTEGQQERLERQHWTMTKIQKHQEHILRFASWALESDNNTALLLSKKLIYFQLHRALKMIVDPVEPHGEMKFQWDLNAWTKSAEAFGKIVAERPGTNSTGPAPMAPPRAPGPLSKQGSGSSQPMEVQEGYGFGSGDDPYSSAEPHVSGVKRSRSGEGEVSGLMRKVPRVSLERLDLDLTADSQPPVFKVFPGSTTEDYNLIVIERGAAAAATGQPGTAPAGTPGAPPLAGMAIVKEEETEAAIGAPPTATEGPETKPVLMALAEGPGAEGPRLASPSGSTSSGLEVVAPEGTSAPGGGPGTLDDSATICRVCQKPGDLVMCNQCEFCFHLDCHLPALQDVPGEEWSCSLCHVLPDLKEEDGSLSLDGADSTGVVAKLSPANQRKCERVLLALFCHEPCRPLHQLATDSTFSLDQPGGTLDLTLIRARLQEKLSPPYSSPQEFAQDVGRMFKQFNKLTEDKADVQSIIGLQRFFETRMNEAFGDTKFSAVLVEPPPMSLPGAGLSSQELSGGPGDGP
Sequence of PKM2 (P14618 2-531): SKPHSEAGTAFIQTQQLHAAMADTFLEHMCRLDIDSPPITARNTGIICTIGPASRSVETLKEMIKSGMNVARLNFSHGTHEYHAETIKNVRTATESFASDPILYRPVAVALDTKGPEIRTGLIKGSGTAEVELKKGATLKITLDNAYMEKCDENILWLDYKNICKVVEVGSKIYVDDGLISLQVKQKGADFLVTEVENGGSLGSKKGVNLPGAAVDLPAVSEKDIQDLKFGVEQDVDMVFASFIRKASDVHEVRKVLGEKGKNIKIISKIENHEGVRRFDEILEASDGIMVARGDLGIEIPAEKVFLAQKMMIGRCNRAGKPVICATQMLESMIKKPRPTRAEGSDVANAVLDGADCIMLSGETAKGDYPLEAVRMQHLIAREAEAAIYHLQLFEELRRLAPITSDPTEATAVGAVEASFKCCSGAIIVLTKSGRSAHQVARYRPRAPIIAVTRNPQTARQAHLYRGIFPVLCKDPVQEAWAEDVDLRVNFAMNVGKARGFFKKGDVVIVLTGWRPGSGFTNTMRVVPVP
Sequence of GAPDH (P04406 2-335): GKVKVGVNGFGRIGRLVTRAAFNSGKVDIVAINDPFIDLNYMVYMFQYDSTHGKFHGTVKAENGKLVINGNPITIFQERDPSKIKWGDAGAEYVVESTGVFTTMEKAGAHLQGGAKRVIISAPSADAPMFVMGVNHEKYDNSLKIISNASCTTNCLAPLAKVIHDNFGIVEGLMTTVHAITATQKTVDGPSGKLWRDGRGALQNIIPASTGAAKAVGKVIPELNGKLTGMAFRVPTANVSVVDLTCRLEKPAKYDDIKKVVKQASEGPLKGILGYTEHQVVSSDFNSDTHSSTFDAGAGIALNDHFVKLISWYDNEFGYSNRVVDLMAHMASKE

Take `CC(=O)C(=O)O` [pyruvate]: the “NADH absorbance at 340 nm” value at GAPDH is “pyruvate can bind to and activate GAPDH”. In the case of `O=CC(O)COP(=O)(O)O` (racemic) [G3P], the Kd was found to be 0.0254 µM on α-enolase (ENO1) [1] and 10.3 µM at α-enolase (ENO1) [3]. For the same compound, the values for the IC50 against α-enolase (ENO1) [2] and against α-enolase (ENO1) [4] were 113 µM and 1170 µM, respectively. As to `O=C(O)[C@H](O)COP(=O)(O)O` [3PG], the affinity at PKM2, expressed as Kd, was 0.26 µM. Turning to `C[C@H](O)C(=O)O` [lactate], on TRIM28, the Kd came out at 0.0412 µM.

By Kd is commonly meant the concentration at which binding is half-saturated. Lower therefore signals higher affinity. Usually IC50 stands for the concentration that inhibits the measured activity by half. Lower therefore signals inhibition by little substance.
